Measured values taken from US12692223B2, “Phenyl-sulfamoyl-benzoic acid derivatives as ERAP1-modulators” (GREY WOLF THERAPEUTICS LIMITED, priority 2021, dated 2026).

Target: T1, ERAP1 (Homo sapiens, UniProt Q9NZ08)
T1 construct: Purified ERAP1(37-941)-10His (ERAP1)
Test: ERAP1 mediated hydrolysis of an amide substrate measured in a biochemical system (10-mer inhibition assay)
Details: purified ERAP1(37-941)-10His; 10-mer substrate; 23° C. for 1 h; excitation 279 nm, emission 355 nm; read-out: IC50 vs Decapeptide WRVYEKC(Dnp)ALK-acid (where Dnp is Dinitrophenyl maleimide) (10-mer)
Outline: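 Purified ERAP1(37-941)-10His in 25 mM Bis-tris propane, 0.05% HPMC, pH 7.75, with compound, then 100 μM 10-mer WRVYEKC(Dnp)ALK or 240 μM L-AMC added (stock concentrations before 1:1 mixing), 1 h at 23 °C. Fluorescence read at ex 279/em 355 nm (10-mer) or ex 365/em 442 nm (L-AMC); IC50 from 4-parameter fit.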

T1 sequence (Q9NZ08 37-941): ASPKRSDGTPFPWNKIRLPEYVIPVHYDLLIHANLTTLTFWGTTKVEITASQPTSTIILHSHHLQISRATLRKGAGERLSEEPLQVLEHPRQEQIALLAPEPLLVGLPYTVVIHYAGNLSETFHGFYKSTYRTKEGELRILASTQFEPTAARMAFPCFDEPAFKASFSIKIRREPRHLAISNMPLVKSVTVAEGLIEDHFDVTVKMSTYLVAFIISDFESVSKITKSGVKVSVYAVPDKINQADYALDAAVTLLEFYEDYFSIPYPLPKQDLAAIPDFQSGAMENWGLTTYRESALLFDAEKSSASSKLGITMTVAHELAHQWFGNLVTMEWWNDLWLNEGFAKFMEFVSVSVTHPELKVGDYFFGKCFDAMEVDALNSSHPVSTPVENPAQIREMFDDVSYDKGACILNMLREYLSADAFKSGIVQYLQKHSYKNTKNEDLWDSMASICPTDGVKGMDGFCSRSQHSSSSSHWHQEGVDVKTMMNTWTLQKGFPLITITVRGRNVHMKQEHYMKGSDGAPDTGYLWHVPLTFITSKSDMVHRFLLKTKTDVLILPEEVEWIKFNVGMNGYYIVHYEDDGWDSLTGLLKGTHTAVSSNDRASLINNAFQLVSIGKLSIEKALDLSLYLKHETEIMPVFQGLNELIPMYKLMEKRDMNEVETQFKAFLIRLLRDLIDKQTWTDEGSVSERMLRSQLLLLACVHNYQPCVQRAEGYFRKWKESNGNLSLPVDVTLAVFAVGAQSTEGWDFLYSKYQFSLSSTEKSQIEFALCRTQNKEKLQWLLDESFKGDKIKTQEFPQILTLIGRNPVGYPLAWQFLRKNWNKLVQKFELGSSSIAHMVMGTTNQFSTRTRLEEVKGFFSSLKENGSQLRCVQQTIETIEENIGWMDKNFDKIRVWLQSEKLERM

IC50 | Structure (SMILES)
1 to 5 nM | CC1(COc2cc(Cl)c(C#N)cc2NS(=O)(=O)c2cc(C(=O)O)ccc2C2CC2)COC1 [Example 32, 3-(N-(4-chloro-5-cyano-2-((3-methyloxetan-3-yl)methoxy)phenyl)sulfamoyl)-4-cyclopropylbenzoic acid]
< 1 nM | N#Cc1cc(NS(=O)(=O)c2cc(C(=O)O)ccc2C2CC2)c(OC2CC3(CC3)C2)cc1Cl [Example 34, 3-(N-(4-chloro-5-cyano-2-(spiro[2.3]hexan-5-yloxy)phenyl)sulfamoyl)-4-cyclopropylbenzoic acid]
< 1 nM | N#Cc1cc(NS(=O)(=O)c2cc(C(=O)O)ccc2C2CC2)c(OCC2CCC2)cc1Cl [Example 35, 3-(N-(4-chloro-5-cyano-2-(cyclobutylmethoxy)phenyl)sulfamoyl)-4-cyclopropylbenzoic acid]
1 to 5 nM | N#Cc1cc(NS(=O)(=O)c2cc(C(=O)O)ccc2C2CC2)c(OCC2COC2)cc1Cl [Example 36, 3-(N-(4-chloro-5-cyano-2-(oxetan-3-ylmethoxy)phenyl)sulfamoyl)-4-cyclopropylbenzoic acid]
1 to 5 nM | N#Cc1cc(NS(=O)(=O)c2cc(C(=O)O)ccc2C2CC2)c(OCC2(F)COC2)cc1Cl [Example 37, 3-(N-(4-chloro-5-cyano-2-((3-fluorooxetan-3-yl)methoxy)phenyl)sulfamoyl)-4-cyclopropylbenzoic acid]
> 5 nM | CN1CC(COc2cc(Cl)c(C#N)cc2NS(=O)(=O)c2cc(C(=O)O)ccc2C2CC2)C1 [Example 38, 3-(N-(4-chloro-5-cyano-2-((1-methylazetidin-3-yl)methoxy)phenyl)sulfamoyl)-4-cyclopropylbenzoic acid]
1 to 5 nM | N#Cc1cc(NS(=O)(=O)c2cc(C(=O)O)ccc2C2CC2)c(OC2CC3(CCC3)C2)cc1Cl [Example 39, 3-(N-(4-chloro-5-cyano-2-(spiro[3.3]heptan-2-yloxy)phenyl)sulfamoyl)-4-cyclopropylbenzoic acid]
< 1 nM | N#Cc1cc(NS(=O)(=O)c2cc(C(=O)O)ccc2C2CC2)c(O[C@@H]2C[C@@H]3C[C@@H]3C2)cc1Cl [Example 41, Cis-3-(N-(2-(bicyclo[3.1.0]hexan-3-yloxy)− 4-chloro-5-cyanophenyl)sulfamoyl)-4-cyclopropylbenzoic acid]
< 1 nM | CC(Oc1cc(Cl)c(C#N)cc1NS(=O)(=O)c1cc(C(=O)O)ccc1C1CC1)C1CCC1 (stereo not shown) [Example 42, 3-(N-(4-chloro-5-cyano-2-(1-cyclobutylethoxy)phenyl)sulfamoyl)-4-cyclopropylbenzoic acid]
> 5 nM | N#Cc1cc(NS(=O)(=O)c2cc(C(=O)O)ccc2C2CC2)c(OCC2CNC2)cc1Cl [Example 43, 3-(N-(2-(azetidin-3-ylmethoxy)-4-chloro-5-cyanophenyl)sulfamoyl)-4-cyclopropylbenzoic acid]
< 1 nM | N#Cc1cc(NS(=O)(=O)c2cc(C(=O)O)ccc2C2CC2)c(OCC2CCCC2)cc1Cl [Example 44, 3-(N-(4-chloro-5-cyano-2-(cyclopentylmethoxy)phenyl)sulfamoyl)-4-cyclopropylbenzoic acid]
1 to 5 nM | CC(Oc1cc(Cl)c(C#N)cc1NS(=O)(=O)c1cc(C(=O)O)ccc1C1CC1)C1COC1 (stereo not shown) [Example 45, 3-(N-(4-chloro-5-cyano-2-(1-(oxetan-3-yl)ethoxy)phenyl)sulfamoyl)-4-cyclopropylbenzoic acid]
1 to 5 nM | CO[C@H]1C[C@H](COc2cc(Cl)c(C#N)cc2NS(=O)(=O)c2cc(C(=O)O)ccc2C2CC2)C1 [Example 46, 3-(N-(4-chloro-5-cyano-2-((trans-3-methoxycyclobutyl)methoxy)phenyl)sulfamoyl)-4-cyclopropylbenzoic acid]
< 1 nM | CO[C@H]1C[C@@H](COc2cc(Cl)c(C#N)cc2NS(=O)(=O)c2cc(C(=O)O)ccc2C2CC2)C1 [Example 47, 3-(N-(4-chloro-5-cyano-2-((cis-3-methoxycyclobutyl)methoxy)phenyl)sulfamoyl)-4-cyclopropylbenzoic acid]
< 1 nM | N#Cc1cc(NS(=O)(=O)c2cc(C(=O)O)ccc2C2CC2)c(O[C@@H]2CCOC2)cc1Cl [Example 48, (R)-3-(N-(4-chloro-5-cyano-2-((tetrahydrofuran-3-yl)oxy)phenyl)sulfamoyl)-4-cyclopropylbenzoic acid]
1 to 5 nM | N#Cc1cc(NS(=O)(=O)c2cc(C(=O)O)ccc2C2CC2)c(O[C@H]2CCOC2)cc1Cl [Example 49, (S)-3-(N-(4-chloro-5-cyano-2-((tetrahydrofuran-3-yl)oxy)phenyl)sulfamoyl)-4-cyclopropylbenzoic acid]
> 5 nM | N#Cc1cc(NS(=O)(=O)c2cc(C(=O)O)ccc2C2CC2)c(OC2CC3(COC3)C2)cc1Cl [Example 52, 3-(N-(2-((2-oxaspiro[3.3]heptan-6-yl)oxy)-4-chloro-5-cyanophenyl)sulfamoyl)-4-cyclopropylbenzoic acid]
< 1 nM | N#Cc1cc(NS(=O)(=O)c2cc(C(=O)O)ccc2C2CC2)c(OC2CCC23CC3)cc1Cl (stereo not shown) [Example 56, 3-(N-(4-chloro-5-cyano-2-(spiro[2.3]hexan-4-yloxy)phenyl)sulfamoyl)-4-cyclopropylbenzoic acid]
< 1 nM | CC1(C)CCC[C@@H]1Oc1cc(Cl)c(C#N)cc1NS(=O)(=O)c1cc(C(=O)O)ccc1C1CC1 [Example 57, (S)−3-(N-(4-chloro-5-cyano-2-((2,2-dimethylcyclopentyl)oxy)phenyl)sulfamoyl)-4-cyclopropylbenzoic acid]
< 1 nM | N#Cc1cc(NS(=O)(=O)c2cc(C(=O)O)ccc2C2CC2)c(OCC2(F)CCC2)cc1Cl [Example 58, 3-(N-(4-chloro-5-cyano-2-((1-fluorocyclobutyl)methoxy)phenyl)sulfamoyl)-4-cyclopropylbenzoic acid]
< 1 nM | CC1(C)CCC[C@H]1Oc1cc(Cl)c(C#N)cc1NS(=O)(=O)c1cc(C(=O)O)ccc1C1CC1 [Example 63, (R)-3-(N-(4-chloro-5-cyano-2-((2,2-dimethylcyclopentyl)oxy)phenyl)sulfamoyl)-4-cyclopropylbenzoic acid]
< 1 nM | N#Cc1cc(NS(=O)(=O)c2cc(C(=O)O)ccc2C2CC2)c(OC2CCC3(CC3)C2)cc1Cl (stereo not shown) [Example 64, 3-(N-(4-chloro-5-cyano-2-(spiro[2.4]heptan-5-yloxy)phenyl)sulfamoyl)-4-cyclopropylbenzoic acid]
1 to 5 nM | N#Cc1cc(NS(=O)(=O)c2cc(C(=O)O)ccc2C2CC2)c(OCC23COC(C2)C3)cc1Cl [Example 65, 3-(N-(2-((2-oxabicyclo[2.1.1]hexan-4-yl)methoxy)-4-chloro-5-cyanophenyl)sulfamoyl)-4-cyclopropylbenzoic acid]
> 5 nM | N#Cc1cc(NS(=O)(=O)c2cc(C(=O)O)ccc2C2CC2)c(OC2COC2)cc1Cl [Example 66, 3-(N-(4-chloro-5-cyano-2-(oxetan-3-yloxy)phenyl)sulfamoyl)-4-cyclopropylbenzoic acid]

Structure (SMILES) | IC50
CC1(C)CC(Oc2cc(Cl)c(C#N)cc2NS(=O)(=O)c2cc(C(=O)O)ccc2C2CC2)C1 [Example 33, 3-(N-(4-chloro-5-cyano-2-(3,3-dimethylcyclobutoxy)phenyl)sulfamoyl)-4-cyclopropylbenzoic acid] | < 1 nM
N#Cc1cc(NS(=O)(=O)c2cc(C(=O)O)ccc2C2CC2)c(O[C@H]2C[C@H](C(F)(F)F)C2)cc1Cl [Example 40, 3-(N-(4-chloro-5-cyano-2-((trans)−3-(trifluoromethyl)cyclobutoxy)phenyl)sulfamoyl)-4-cyclopropylbenzoic acid] | 1 to 5 nM
O=C(O)c1ccc(C2CC2)c(S(=O)(=O)Nc2cc(-c3ccns3)c(Cl)cc2OC2CC(F)(F)C2)c1 [Example 50, 3-(N-(4-chloro-2-(3,3-difluorocyclobutoxy)-5-(isothiazol-5-yl)phenyl)sulfamoyl)-4-cyclopropylbenzoic acid] | < 1 nM
O=C(O)c1ccc(C2CC2)c(S(=O)(=O)Nc2cc(-c3ccns3)c(Cl)cc2OC2CCC2)c1 [Example 51, 3-(N-(4-chloro-2-cyclobutoxy-5-(isothiazol-5-yl)phenyl)sulfamoyl)-4-cyclopropylbenzoic acid] | < 1 nM
N#Cc1cc(NS(=O)(=O)c2cc(C(=O)O)ccc2C2CC2)c(O[C@H]2C[C@@H](C#N)C2)cc1Cl [Example 53, 3-(N-(4-chloro-5-cyano-2-(cis-3-cyanocyclobutoxy)phenyl)sulfamoyl)-4-cyclopropylbenzoic acid] | 1 to 5 nM
C#CC1(Oc2cc(Cl)c(C#N)cc2NS(=O)(=O)c2cc(C(=O)O)ccc2C2CC2)CCC1 [Example 54, 3-(N-(4-chloro-5-cyano-2-(1-ethynylcyclobutoxy)phenyl)sulfamoyl)-4-cyclopropylbenzoic acid] | 1 to 5 nM
N#Cc1cc(NS(=O)(=O)c2cc(C(=O)O)ccc2C2CC2)c(O[C@H]2C[C@H](C#N)C2)cc1Cl [Example 55, 3-(N-(4-chloro-5-cyano-2-(trans-3-cyanocyclobutoxy)phenyl)sulfamoyl)-4-cyclopropylbenzoic acid] | 1 to 5 nM
Cc1oncc1-c1cc(NS(=O)(=O)c2cc(C(=O)O)ccc2C2CC2)c(OC2CCC2)cc1Cl [Example 60, 3-(N-(4-chloro-2-cyclobutoxy-5-(5-methylisoxazol-4-yl)phenyl)sulfamoyl)-4-cyclopropylbenzoic acid] | < 1 nM
Cc1oncc1-c1cc(NS(=O)(=O)c2cc(C(=O)O)ccc2C2CC2)c(OC2CC(F)(F)C2)cc1Cl [Example 61, 3-(N-(4-chloro-2-(3,3-difluorocyclobutoxy)-5-(5-methylisoxazol-4-yl)phenyl)sulfamoyl)-4-cyclopropylbenzoic acid] | < 1 nM
CC1(Oc2cc(Cl)c(C#N)cc2NS(=O)(=O)c2cc(C(=O)O)ccc2C2CC2)CCC1 [Example 62, 3-(N-(4-chloro-5-cyano-2-(1-methylcyclobutoxy)phenyl)sulfamoyl)-4-cyclopropylbenzoic acid] | < 1 nM
